Here are results for 16 compounds from article PMC2615555 (Virology, 2008).

For one experiment, the target named is T1, I-A^d (Mus musculus, UniProt P01921+P04228).
T1 sequence (P04228 24-256): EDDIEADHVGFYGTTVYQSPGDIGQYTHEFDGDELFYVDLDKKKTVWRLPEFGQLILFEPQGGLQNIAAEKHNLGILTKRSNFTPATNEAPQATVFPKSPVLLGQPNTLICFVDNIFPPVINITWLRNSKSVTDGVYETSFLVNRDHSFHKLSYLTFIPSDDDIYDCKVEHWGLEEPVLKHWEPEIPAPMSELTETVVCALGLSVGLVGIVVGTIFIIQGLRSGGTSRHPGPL
T1 sequence (P01921 28-265): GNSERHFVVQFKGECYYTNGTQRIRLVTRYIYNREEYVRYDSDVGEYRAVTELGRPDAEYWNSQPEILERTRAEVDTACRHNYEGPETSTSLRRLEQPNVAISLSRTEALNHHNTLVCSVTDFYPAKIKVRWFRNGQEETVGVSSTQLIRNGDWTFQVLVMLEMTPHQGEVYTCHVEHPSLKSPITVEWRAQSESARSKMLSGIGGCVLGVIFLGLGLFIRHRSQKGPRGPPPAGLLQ
In words: biochemical. The experiment is classed as binding, BALB/c mouse.

A further experiment concerns the target T2, I-E^d (Mus musculus, UniProt P01904+P01915).
T2 sequence (P01904 26-255): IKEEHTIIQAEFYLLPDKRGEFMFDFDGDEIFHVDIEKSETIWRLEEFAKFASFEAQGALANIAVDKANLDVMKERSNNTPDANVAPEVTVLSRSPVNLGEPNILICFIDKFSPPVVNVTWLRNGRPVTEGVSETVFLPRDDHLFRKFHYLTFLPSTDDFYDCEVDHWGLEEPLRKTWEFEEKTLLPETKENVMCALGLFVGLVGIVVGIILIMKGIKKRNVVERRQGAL
T2 sequence (P01915 27-264 limits assumed): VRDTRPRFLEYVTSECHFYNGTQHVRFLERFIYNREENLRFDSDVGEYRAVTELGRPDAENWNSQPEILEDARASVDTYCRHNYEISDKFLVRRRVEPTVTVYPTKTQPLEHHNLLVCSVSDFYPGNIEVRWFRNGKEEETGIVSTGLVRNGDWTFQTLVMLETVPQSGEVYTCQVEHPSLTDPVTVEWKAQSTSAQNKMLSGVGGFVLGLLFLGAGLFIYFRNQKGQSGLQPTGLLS
Briefly: biochemical. The experiment is classed as binding, BALB/c mouse.

Setting [1] is: Binding Assay IC50, I-A^d (membrane 15mers).
[2] abbreviates: Binding Assay IC50, I-A^d (envelope 15mers).

As to `CSCC[C@H](NC(=O)[C@H](CC(C)C)NC(=O)[C@H](CO)NC(=O)[C@H](C)NC(=O)[C@@H](NC(=O)[C@@H](NC(=O)[C@H](CCCNC(=N)N)NC(=O)[C@H](CCCCN)NC(=O)[C@@H](NC(=O)[C@H](CCCCN)NC(=O)[C@@H](N)CCCNC(=N)N)C(C)C)C(C)C)C(C)C)C(=O)N[C@@H](CCCNC(=N)N)C(=O)NCC(=O)N[C@@H](CC(C)C)C(=O)N[C@@H](CO)C(=O)O` [C81–95], on I-A^d, the “Binding Assay IC50, I-A^d (capsid 15mers)” value was “high affinity”.

`CSCC[C@H](NC(=O)[C@H](CC(C)C)NC(=O)[C@H](CO)NC(=O)[C@H](C)NC(=O)[C@@H](NC(=O)[C@@H](NC(=O)[C@H](CCCNC(=N)N)NC(=O)[C@H](CCCCN)NC(=O)[C@@H](NC(=O)[C@H](CCCCN)NC(=O)[C@H](CCCNC(=N)N)NC(=O)[C@H](CC(C)C)NC(=O)[C@@H](NC(=O)[C@H](C)NC(=O)[C@@H](N)CC(C)C)C(C)C)C(C)C)C(C)C)C(C)C)C(=O)O` [C77–91]: the “Binding Assay IC50, I-A^d (capsid 15mers)” value at I-A^d is “high affinity”.

The term IC50 denotes the concentration needed to halve the response being measured. Read a high IC50 as weaker potency. On to `CC[C@H](C)[C@H](NC(=O)[C@@H](NC(=O)[C@@H](NC(=O)[C@H](CCCNC(=N)N)NC(=O)[C@H](CCC(N)=O)NC(=O)[C@@H](NC(=O)[C@@H](N)CCSC)[C@@H](C)O)C(C)C)C(C)C)C(=O)N[C@@H](C)C(=O)N[C@@H](CC(C)C)C(=O)N[C@@H](CC(C)C)C(=O)N[C@H](C(=O)N[C@@H](CC(C)C)C(=O)N[C@@H](C)C(=O)N[C@H](C(=O)NCC(=O)O)C(C)C)C(C)C` [M57–71], for which the figures for the IC50 at I-A^d (setting [1]) and against I-E^d were 6.48 µM and over 45 µM, respectively.

With `CSCC[C@H](NC(=O)[C@H](CCCNC(=N)N)NC(=O)CNC(=O)[C@@H](NC(=O)[C@H](CCSC)NC(=O)[C@H](Cc1c[nH]c2ccccc12)NC(=O)[C@H](CCCCN)NC(=O)[C@@H](N)CCC(=O)O)[C@@H](C)O)C(=O)NCC(=O)N[C@@H](CCC(=O)O)C(=O)N[C@@H](CCCNC(=N)N)C(=O)N[C@@H](CCC(N)=O)C(=O)N[C@@H](CC(C)C)C(=O)N[C@@H](CCC(N)=O)C(=O)N[C@@H](CCCCN)C(=O)O` [M17–31], the IC50 at I-A^d (setting [1]) is 20.4 µM; against I-E^d it was 20.7 µM.

For `CC[C@H](C)[C@H](NC(=O)[C@H](CCCCN)NC(=O)[C@@H](NC(=O)[C@H](CCC(N)=O)NC(=O)[C@H](CC(=O)O)NC(=O)[C@@H](NC(=O)[C@@H](N)CCC(=O)O)C(C)C)[C@@H](C)O)C(=O)N[C@@H](CCC(N)=O)C(=O)N[C@@H](Cc1ccc(O)cc1)C(=O)N[C@H](C(=O)N[C@H](C(=O)N[C@@H](CCCNC(=N)N)C(=O)N[C@@H](C)C(=O)N[C@@H](CCC(N)=O)C(=O)N[C@@H](CC(C)C)C(=O)O)[C@@H](C)CC)C(C)C` [E129–143], on I-A^d (setting [2]), the half-inhibitory concentration (IC50) was under 1 µM.

With `CC(C)C[C@H](NC(=O)CNC(=O)[C@H](Cc1c[nH]cn1)NC(=O)[C@H](CC(N)=O)NC(=O)[C@H](CCC(=O)O)NC(=O)[C@H](Cc1c[nH]cn1)NC(=O)[C@@H](NC(=O)[C@@H]1CCCN1)[C@@H](C)O)C(=O)N[C@@H](CCCCN)C(=O)N[C@H](C(=O)N[C@@H](CCCNC(=N)N)C(=O)N[C@@H](CCC(N)=O)C(=O)N[C@@H](CCC(=O)O)C(=O)N[C@@H](CCCCN)C(=O)N[C@@H](Cc1c[nH]c2ccccc12)C(=O)O)[C@@H](C)O` [M5–19], the figures for the concentration for half-maximal inhibition (IC50) on I-A^d (setting [1]) and at I-E^d were 13.2 µM and over 45 µM, respectively.

For the compound `CC[C@H](C)[C@H](NC(=O)[C@@H](NC(=O)[C@H](CC(C)C)NC(=O)[C@H](C)NC(=O)[C@@H](NC(=O)[C@@H](NC(=O)[C@H](C)NC(=O)[C@H](Cc1ccccc1)NC(=O)[C@H](Cc1ccccc1)NC(=O)[C@@H]1CCCN1C(=O)[C@H](CC(N)=O)NC(=O)[C@H](CCCNC(=N)N)NC(=O)[C@@H](N)C(C)C)C(C)C)[C@@H](C)O)[C@@H](C)O)C(=O)N[C@@H](C)C(=O)N[C@@H](Cc1ccc(O)cc1)C(=O)O` [M37–51], the half-maximal inhibitory concentration (IC50) at I-A^d (setting [1]) turned out to be 0.04 µM; against I-E^d it was 1.92 µM.

`CC[C@H](C)[C@H](NC(=O)[C@@H](NC(=O)[C@H](CC(C)C)NC(=O)[C@H](C)NC(=O)[C@@H](N)[C@@H](C)O)[C@@H](C)O)C(=O)N[C@@H](C)C(=O)N[C@@H](Cc1ccc(O)cc1)C(=O)N[C@@H](CC(C)C)C(=O)N[C@H](C(=O)NCC(=O)N[C@@H](CO)C(=O)N[C@@H](CC(N)=O)C(=O)N[C@@H](CCSC)C(=O)N[C@H](C(=O)N[C@@H](CCC(N)=O)C(=O)O)[C@@H](C)O)C(C)C` [M45–59]: the figures for the half-inhibitory concentration (IC50) at I-A^d (setting [1]) and against I-E^d were 0.102 µM and over 45 µM, respectively.

Regarding `CC[C@H](C)[C@H](NC(=O)[C@H](CCCCN)NC(=O)[C@H](CCC(N)=O)NC(=O)[C@H](CC(C)C)NC(=O)[C@H](CCC(N)=O)NC(=O)[C@H](CCCNC(=N)N)NC(=O)[C@H](CCC(=O)O)NC(=O)CNC(=O)[C@H](CCSC)NC(=O)[C@H](CCCNC(=N)N)NC(=O)CNC(=O)[C@@H](N)[C@@H](C)O)C(=O)N[C@@H](CCC(=O)O)C(=O)N[C@@H](CCCNC(=N)N)C(=O)N[C@@H](Cc1c[nH]c2ccccc12)C(=O)O` [M21–35], the values for the IC50 on I-A^d (setting [1]) and on I-E^d were 42.5 µM and over 45 µM, respectively.

As for `CC[C@H](C)[C@H](NC(=O)[C@@H](NC(=O)[C@H](CC(C)C)NC(=O)[C@H](C)NC(=O)[C@@H](NC(=O)[C@@H](NC(=O)[C@H](C)NC(=O)[C@H](Cc1ccccc1)NC(=O)[C@@H](N)Cc1ccccc1)C(C)C)[C@@H](C)O)[C@@H](C)O)C(=O)N[C@@H](C)C(=O)N[C@@H](Cc1ccc(O)cc1)C(=O)N[C@@H](CC(C)C)C(=O)N[C@H](C(=O)NCC(=O)N[C@@H](CO)C(=O)O)C(C)C` [M41–55], the half-maximal inhibitory concentration (IC50) on I-A^d (setting [1]) is 6.21 µM; on I-E^d, over 45 µM.

As for `CC[C@H](C)[C@H](NC(=O)[C@H](CCCCN)NC(=O)[C@H](CCC(N)=O)NC(=O)[C@H](CC(C)C)NC(=O)[C@H](CCC(N)=O)NC(=O)[C@H](CCCNC(=N)N)NC(=O)[C@H](CCC(=O)O)NC(=O)CN)C(=O)N[C@@H](CCC(=O)O)C(=O)N[C@@H](CCCNC(=N)N)C(=O)N[C@@H](Cc1c[nH]c2ccccc12)C(=O)N[C@@H](Cc1ccccc1)C(=O)N[C@H](C(=O)N[C@@H](CCCNC(=N)N)C(=O)N[C@@H](CC(N)=O)C(=O)O)C(C)C` [M25–39], the results for the 50% inhibitory concentration (IC50) on I-A^d (setting [1]) and at I-E^d were over 45 µM and 13.2 µM, respectively.

Turning to `CSCC[C@H](NC(=O)[C@H](CCCNC(=N)N)NC(=O)CNC(=O)[C@@H](NC(=O)[C@H](CCSC)NC(=O)[C@H](Cc1c[nH]c2ccccc12)NC(=O)[C@H](CCCCN)NC(=O)[C@H](CCC(=O)O)NC(=O)[C@H](CCC(N)=O)NC(=O)[C@H](CCCNC(=N)N)NC(=O)[C@@H](NC(=O)[C@@H](N)CCCCN)[C@@H](C)O)[C@@H](C)O)C(=O)NCC(=O)N[C@@H](CCC(=O)O)C(=O)N[C@@H](CCCNC(=N)N)C(=O)O` [M13–27], the half-maximal inhibitory concentration (IC50) was 1.9 µM at I-A^d (setting [1]) and over 45 µM against I-E^d.

In turn, `CC[C@H](C)[C@H](NC(=O)[C@H](CCCCN)NC(=O)[C@@H](N)[C@@H](C)O)C(=O)N[C@@H](CCC(N)=O)C(=O)N[C@@H](Cc1ccc(O)cc1)C(=O)N[C@H](C(=O)N[C@H](C(=O)N[C@@H](CCCNC(=N)N)C(=O)N[C@@H](C)C(=O)N[C@@H](CCC(N)=O)C(=O)N[C@@H](CC(C)C)C(=O)N[C@@H](Cc1c[nH]cn1)C(=O)N[C@H](C(=O)NCC(=O)N[C@@H](C)C(=O)O)C(C)C)[C@@H](C)CC)C(C)C` [E133–147] yielded a concentration for half-maximal inhibition (IC50) on I-A^d (setting [2]) of under 1 µM.

On I-A^d (setting [2]), `CC[C@H](C)[C@H](NC(=O)[C@@H](NC(=O)[C@H](C)NC(=O)[C@H](C)NC(=O)[C@H](Cc1c[nH]cn1)NC(=O)[C@@H]1CCCN1)[C@@H](C)O)C(=O)N[C@@H](CCCNC(=N)N)C(=O)N[C@H](C(=O)N[C@@H](CC(C)C)C(=O)N[C@@H](C)C(=O)N[C@@H](CC(C)C)C(=O)NCC(=O)N[C@@H](CC(N)=O)C(=O)N[C@@H](CCC(N)=O)C(=O)N[C@@H](CCC(=O)O)C(=O)O)C(C)C` [E237–251] displayed a 50% inhibitory concentration (IC50) of under 1 µM.

`CC[C@H](C)[C@H](NC(=O)[C@@H](NC(=O)[C@H](C)NC(=O)[C@H](C)NC(=O)[C@H](Cc1c[nH]cn1)NC(=O)[C@@H]1CCCN1C(=O)[C@@H]1CCCN1C(=O)[C@H](CCC(=O)O)NC(=O)[C@H](Cc1ccccc1)NC(=O)[C@@H](N)CCC(=O)O)[C@@H](C)O)C(=O)N[C@@H](CCCNC(=N)N)C(=O)N[C@H](C(=O)N[C@@H](CC(C)C)C(=O)N[C@@H](C)C(=O)N[C@@H](CC(C)C)C(=O)O)C(C)C` [E233–247] came in with an IC50 at I-A^d (setting [2]) of under 1 µM. For the same compound, on I-E^d, the “Binding Assay IC50, I-E^d (envelope 15mers)” value was “high affinity”.

`CC[C@H](C)[C@H](NC(=O)CN)C(=O)N[C@@H](CC(N)=O)C(=O)N[C@H](C(=O)N[C@@H](CCCNC(=N)N)C(=O)N[C@@H](CC(N)=O)C(=O)N[C@@H](CCSC)C(=O)N[C@H](C(=O)N[C@@H](CCSC)C(=O)N[C@@H](CO)C(=O)N[C@@H](CCSC)C(=O)N[C@@H](CO)C(=O)N[C@@H](CCSC)C(=O)N[C@H](C(=O)N[C@@H](CC(C)C)C(=O)O)[C@@H](C)CC)[C@@H](C)O)[C@@H](C)O` [E465–479] gave an IC50 on I-A^d (setting [2]) of under 1 µM.
